Patent US6525001B1, “Substituted pyrimidine and pyridine herbicides” (Mid-American Commercialization Corporation, priority 1997, dated 2003)

Experiments:
Assay type in all cases: in vivo
rape (Brassica napus) = test: Test B pre-/postemergence; set-up: key: 0 is no effect; 10 is complete control
Summary of the method: (§1)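 Seeds were planted and sprayed preemergence, while plants at 2 to 18 cm (1- to 4-leaf stage) were sprayed postemergence at the same time, with test chemical in a non-phytotoxic solvent mixture containing surfactant. After twelve to sixteen days in a greenhouse, injury was rated visually against untreated controls on a 0–10 scale.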

soybean (Glycine max) = test: Test B pre-/postemergence; set-up: key: 0 is no effect; 10 is complete control
Summary of the method: as §1

[1] = system: bamyardgrass (Echinochloa crus-galli); test: Test B flood test
Summary of the method: (§2)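 Plants were grown to the 2-leaf stage before treatment with test chemical, then held in a greenhouse for twelve to sixteen days. Injury was visually rated against untreated controls on a 0–10 scale, where 0 is no effect and 10 is complete control.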

[2] = system: duck salad (Heteranthera limosa); test: Test B flood test
Summary of the method: as §2

rice (Oryza sativa) = test: Test B flood test
Summary of the method: as §2

[3] = system: smallflower flatsedge (Cyperus difformis); test: Test B flood test
Summary of the method: as §2

[4] = system: cotton (Gossypium hirsutum); test: Test C; set-up: key: 0 was no effect; 100 was complete control; details: PREEMERGENCE
[5] = system: eastern black nightshade (Solanum ptycanthum); test: Test C; set-up: key: 0 was no effect; 100 was complete control; details: PREEMERGENCE
[6] = system: field bindweed (Convolvulus arvensis); test: Test C; set-up: key: 0 was no effect; 100 was complete control; details: PREEMERGENCE
[7] = system: giant foxtail (Setaria faberii); test: Test C; set-up: key: 0 was no effect; 100 was complete control; details: PREEMERGENCE
[8] = system: lambsquarters (Chenopodium album); test: Test C; set-up: key: 0 was no effect; 100 was complete control; details: PREEMERGENCE
[9] = system: surinam grass (Brachiaria decumbens); test: Test C; set-up: key: 0 was no effect; 100 was complete control; details: PREEMERGENCE
[10] = system: wild poinsettia (Euphorbia heterophylla); test: Test C; set-up: key: 0 was no effect; 100 was complete control; details: PREEMERGENCE
[11] = Rate 250 g/ha, Postemergence (so in the source)
[12] = Rate 62 g/ha, Postemergence (flood test)
[13] = Rate 125 g/ha, Postemergence, flood test
[14] = Rate 250 g/ha, Postemergence (flood test species)
[15] = Rate 125 g/ha, Postemergence section (flood test species)

Q: What does the source list for `CCc1cnc(-n2ccc(C(F)(F)F)n2)nc1Cc1cccc(C(F)(F)F)c1` [Compound 46]?
A: Plant response rating, Rape (rape (Brassica napus); Rate 62 g/ha, Postemergence): 9; Rape plant response rating (rape (Brassica napus); Rate 62 g/ha, Preemergence): 9; Rape plant response rating (rape (Brassica napus); Rate 125 g/ha, Postemergence): 9; Rape plant response rating (rape (Brassica napus); Rate 125 g/ha, Preemergence): 9; Plant response rating, Rape (rape (Brassica napus); Rate 250 g/ha, Postemergence): 9; Plant response rating, Rape (rape (Brassica napus); [11]): 10; Plant response rating, Soybean (soybean (Glycine max); Rate 62 g/ha, Postemergence): 8; Soybean plant response rating (soybean (Glycine max); Rate 62 g/ha, Preemergence): 1; Soybean plant response rating (soybean (Glycine max); Rate 125 g/ha, Postemergence): 8; Plant response rating, Soybean (soybean (Glycine max); Rate 125 g/ha, Preemergence): 3; Plant response rating, Soybean (soybean (Glycine max); Rate 250 g/ha, Postemergence): 9; Plant response rating, Soybean (soybean (Glycine max); [11]): 7; Plant response rating, Barnyardgrass [1, 12]: 2; Plant response rating, Barnyardgrass [1, 13]: 3; Plant response rating, Barnyardgrass [1, 14]: 4; Plant response rating, Ducksalad [2, 12]: 1; Plant response rating, Ducksalad [2, 13]: 1; Plant response rating, Ducksalad [2, 14]: 4; Plant response rating, Rice (rice (Oryza sativa); [12]): 1; Rice plant response rating (rice (Oryza sativa); [15]): 2; Plant response rating, Rice (rice (Oryza sativa); [14]): 4; Plant response rating, S. Flatsedge [3, 12]: 4; S. Flatsedge plant response rating [3, 15]: 5; Plant response rating, S. Flatsedge [3, 14]: 7; Plant response rating, Cotton ([4]; Rate 35 g/ha): 0; Plant response rating, Cotton ([4]; Rate 70 g/ha): 5; Plant response rating, Cotton ([4]; Rate 140 g/ha): 40; Plant response rating, E. blacknightsh ([5]; Rate 35 g/ha): 80; Plant response rating, E. blacknightsh ([5]; Rate 70 g/ha): 100; Plant response rating, E. blacknightsh ([5]; Rate 140 g/ha): 100; Plant response rating, Field bindweed ([6]; Rate 35 g/ha): 10; Plant response rating, Field bindweed ([6]; Rate 70 g/ha): 70; Plant response rating, Field bindweed ([6]; Rate 140 g/ha): 100; Plant response rating, Giant foxtail ([7]; Rate 35 g/ha): 100; Plant response rating, Giant foxtail ([7]; Rate 70 g/ha): 100; Plant response rating, Giant foxtail ([7]; Rate 140 g/ha): 100; Plant response rating, Lambsquarters ([8]; Rate 35 g/ha): 60; Plant response rating, Lambsquarters ([8]; Rate 70 g/ha): 100; Plant response rating, Lambsquarters ([8]; Rate 140 g/ha): 100; Plant response rating, Surinam grass ([9]; Rate 35 g/ha): 0; Plant response rating, Surinam grass ([9]; Rate 70 g/ha): 5; Plant response rating, Surinam grass ([9]; Rate 140 g/ha): 25; Plant response rating, Wild poinsettia ([10]; Rate 35 g/ha): 0; Plant response rating, Wild poinsettia ([10]; Rate 70 g/ha): 15; Plant response rating, Wild poinsettia ([10]; Rate 140 g/ha): 20
